Read-outs that look alike come from different tables or passages of the source.
Tests used:
EGFR wildtype (WT) = EGFR wildtype (WT) (Homo sapiens, UniProt P00533); test: Biochemical EGFR kinase inhibition assay (Lance Ultra TR-FRET), wildtype
Method in brief: (§1)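 Enzyme reactions lasted 1 hour at room temperature with test compounds between 0.003 and 10 μM, followed by 10 mM EDTA quench.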

EGFR L858R/C797S = EGFR L858R/C797S (Homo sapiens, UniProt P00533, C797S/L858R); test: Biochemical EGFR kinase inhibition assay (Lance Ultra TR-FRET), double mutant L858R/C797S
Sequence of EGFR L858R/C797S (P00533 25-1210 C797S/L858R): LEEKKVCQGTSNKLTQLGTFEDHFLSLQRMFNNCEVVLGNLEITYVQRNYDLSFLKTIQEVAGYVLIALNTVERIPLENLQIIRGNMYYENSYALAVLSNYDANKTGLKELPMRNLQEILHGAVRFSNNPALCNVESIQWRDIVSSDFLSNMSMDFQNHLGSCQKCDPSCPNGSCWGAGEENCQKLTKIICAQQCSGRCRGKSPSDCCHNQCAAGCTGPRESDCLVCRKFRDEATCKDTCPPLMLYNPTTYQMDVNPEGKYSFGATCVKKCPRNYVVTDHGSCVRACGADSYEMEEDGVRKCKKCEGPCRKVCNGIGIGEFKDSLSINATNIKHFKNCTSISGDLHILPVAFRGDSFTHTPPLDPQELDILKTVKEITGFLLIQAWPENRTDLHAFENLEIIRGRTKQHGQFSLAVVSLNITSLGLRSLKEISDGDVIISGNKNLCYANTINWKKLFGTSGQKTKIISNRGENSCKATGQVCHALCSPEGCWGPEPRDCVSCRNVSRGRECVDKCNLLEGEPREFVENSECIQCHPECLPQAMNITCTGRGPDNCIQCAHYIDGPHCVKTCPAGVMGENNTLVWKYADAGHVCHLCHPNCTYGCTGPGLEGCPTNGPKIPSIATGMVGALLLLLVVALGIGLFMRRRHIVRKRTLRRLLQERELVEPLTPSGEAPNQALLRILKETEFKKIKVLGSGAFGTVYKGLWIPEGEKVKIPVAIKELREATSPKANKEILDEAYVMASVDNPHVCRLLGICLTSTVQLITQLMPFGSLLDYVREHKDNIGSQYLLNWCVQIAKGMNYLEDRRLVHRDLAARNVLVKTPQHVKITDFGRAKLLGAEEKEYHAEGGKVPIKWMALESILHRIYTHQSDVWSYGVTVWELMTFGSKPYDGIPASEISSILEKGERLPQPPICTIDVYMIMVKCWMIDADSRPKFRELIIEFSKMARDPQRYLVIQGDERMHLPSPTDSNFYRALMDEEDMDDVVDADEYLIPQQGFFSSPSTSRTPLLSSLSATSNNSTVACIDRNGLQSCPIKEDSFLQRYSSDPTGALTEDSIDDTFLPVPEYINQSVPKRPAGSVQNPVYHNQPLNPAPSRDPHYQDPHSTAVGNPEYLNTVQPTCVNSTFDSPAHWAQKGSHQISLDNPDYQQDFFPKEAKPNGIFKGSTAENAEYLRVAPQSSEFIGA
Method in brief: as §1

EGFR Del19/C797S = EGFR Del19/C797S (Homo sapiens, UniProt P00533, C797S/DEL746-750); test: Biochemical EGFR kinase inhibition assay (Lance Ultra TR-FRET), double mutant del19/C797S
Sequence of EGFR Del19/C797S (P00533 with tags, fused parts or gaps DEL746-750/C797S): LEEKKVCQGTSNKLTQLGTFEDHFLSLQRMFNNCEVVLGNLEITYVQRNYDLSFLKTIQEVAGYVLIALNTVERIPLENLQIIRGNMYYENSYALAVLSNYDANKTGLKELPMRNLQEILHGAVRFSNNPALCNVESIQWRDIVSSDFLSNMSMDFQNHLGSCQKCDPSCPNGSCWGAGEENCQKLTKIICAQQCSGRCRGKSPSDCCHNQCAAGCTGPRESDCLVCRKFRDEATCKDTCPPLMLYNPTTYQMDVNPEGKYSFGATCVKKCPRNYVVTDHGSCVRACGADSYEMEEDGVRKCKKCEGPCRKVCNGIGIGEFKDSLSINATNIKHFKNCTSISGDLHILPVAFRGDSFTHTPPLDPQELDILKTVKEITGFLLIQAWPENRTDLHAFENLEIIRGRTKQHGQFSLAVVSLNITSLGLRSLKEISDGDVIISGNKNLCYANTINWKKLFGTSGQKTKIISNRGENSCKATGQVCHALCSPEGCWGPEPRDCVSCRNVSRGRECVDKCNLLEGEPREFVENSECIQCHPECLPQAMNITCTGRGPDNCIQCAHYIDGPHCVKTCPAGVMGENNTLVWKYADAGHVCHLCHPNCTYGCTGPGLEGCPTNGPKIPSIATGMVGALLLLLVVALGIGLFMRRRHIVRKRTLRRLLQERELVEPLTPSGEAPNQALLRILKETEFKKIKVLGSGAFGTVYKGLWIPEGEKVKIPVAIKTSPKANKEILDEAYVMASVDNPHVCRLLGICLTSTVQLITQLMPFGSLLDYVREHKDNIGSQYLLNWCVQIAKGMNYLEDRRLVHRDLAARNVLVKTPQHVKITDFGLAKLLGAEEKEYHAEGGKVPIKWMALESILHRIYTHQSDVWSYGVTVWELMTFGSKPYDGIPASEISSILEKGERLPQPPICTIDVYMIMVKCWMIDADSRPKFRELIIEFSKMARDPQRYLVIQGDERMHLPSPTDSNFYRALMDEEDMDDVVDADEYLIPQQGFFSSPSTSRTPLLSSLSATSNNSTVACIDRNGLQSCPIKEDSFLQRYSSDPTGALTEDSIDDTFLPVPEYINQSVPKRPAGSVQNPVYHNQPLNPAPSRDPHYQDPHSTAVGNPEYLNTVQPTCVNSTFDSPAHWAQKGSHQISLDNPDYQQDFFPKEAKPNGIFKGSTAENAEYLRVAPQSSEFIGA
Method in brief: as §1

EGFR L858R/T790M/C797S = EGFR L858R/T790M/C797S (Homo sapiens, UniProt P00533, C797S/L858R/T790M); test: Biochemical EGFR kinase inhibition assay (Lance Ultra TR-FRET), triple mutant L858R/T790M/C797S
Method in brief: as §1

EGFR Del19/T790M/C797S = EGFR Del19/T790M/C797S (Homo sapiens, UniProt P00533, C797S/DEL746-750/T790M); test: Biochemical EGFR kinase inhibition assay (Lance Ultra TR-FRET), triple mutant del19/T790M/C797S
Sequence of EGFR Del19/T790M/C797S (P00533 with tags, fused parts or gaps DEL746-750/T790M/C797S): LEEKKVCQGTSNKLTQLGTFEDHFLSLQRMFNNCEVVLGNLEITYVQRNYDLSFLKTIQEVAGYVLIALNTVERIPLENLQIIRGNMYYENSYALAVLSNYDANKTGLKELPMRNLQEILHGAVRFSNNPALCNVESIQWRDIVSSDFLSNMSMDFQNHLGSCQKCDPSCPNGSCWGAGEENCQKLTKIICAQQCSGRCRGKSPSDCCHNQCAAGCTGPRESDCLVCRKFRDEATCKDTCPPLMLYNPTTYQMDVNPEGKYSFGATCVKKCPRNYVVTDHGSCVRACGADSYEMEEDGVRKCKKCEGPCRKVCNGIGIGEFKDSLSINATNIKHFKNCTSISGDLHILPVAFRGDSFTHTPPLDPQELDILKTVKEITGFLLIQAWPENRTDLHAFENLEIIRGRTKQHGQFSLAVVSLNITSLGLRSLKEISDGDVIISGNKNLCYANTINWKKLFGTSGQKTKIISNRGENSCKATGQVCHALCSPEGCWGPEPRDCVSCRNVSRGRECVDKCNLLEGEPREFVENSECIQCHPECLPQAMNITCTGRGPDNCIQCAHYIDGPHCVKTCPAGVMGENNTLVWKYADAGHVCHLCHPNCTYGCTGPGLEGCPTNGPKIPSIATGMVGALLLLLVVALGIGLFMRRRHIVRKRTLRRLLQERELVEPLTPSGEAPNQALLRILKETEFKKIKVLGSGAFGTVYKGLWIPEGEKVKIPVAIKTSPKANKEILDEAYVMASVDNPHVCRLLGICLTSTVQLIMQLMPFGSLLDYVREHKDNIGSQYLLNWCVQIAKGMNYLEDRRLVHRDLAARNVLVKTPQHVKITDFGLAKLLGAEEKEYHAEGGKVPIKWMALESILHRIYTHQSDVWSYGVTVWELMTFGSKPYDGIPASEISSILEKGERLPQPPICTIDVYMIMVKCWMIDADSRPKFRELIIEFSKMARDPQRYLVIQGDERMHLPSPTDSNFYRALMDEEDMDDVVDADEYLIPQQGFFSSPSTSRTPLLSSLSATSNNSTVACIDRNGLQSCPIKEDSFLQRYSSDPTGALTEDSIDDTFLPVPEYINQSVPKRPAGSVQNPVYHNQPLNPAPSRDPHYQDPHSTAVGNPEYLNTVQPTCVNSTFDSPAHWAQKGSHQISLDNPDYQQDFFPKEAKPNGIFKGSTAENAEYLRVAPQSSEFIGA
Method in brief: as §1

[1] = Km ATP, read-out: IC50 WT (nM), Km ATP
[2] = IC50 L858R/C797S (nM), 100 μM ATP
[3] = Km ATP, read-out: IC50 L858R/C797S (nM), Km ATP
[4] = IC50 Del19/C797S (nM), 100 μM ATP
[5] = Km ATP, read-out: IC50 Del19/C797S (nM), Km ATP
[6] = IC50 L858R/T790M/C797S (nM), 100 μM ATP
[7] = Km ATP, read-out: IC50 L858R/T790M/C797S (nM), Km ATP
[8] = IC50 Del19/T790M/C797S (nM), 100 μM ATP
[9] = Km ATP, read-out: IC50 Del19/T790M/C797S (nM), Km ATP

Sequence of EGFR wildtype (WT) (P00533 25-1210): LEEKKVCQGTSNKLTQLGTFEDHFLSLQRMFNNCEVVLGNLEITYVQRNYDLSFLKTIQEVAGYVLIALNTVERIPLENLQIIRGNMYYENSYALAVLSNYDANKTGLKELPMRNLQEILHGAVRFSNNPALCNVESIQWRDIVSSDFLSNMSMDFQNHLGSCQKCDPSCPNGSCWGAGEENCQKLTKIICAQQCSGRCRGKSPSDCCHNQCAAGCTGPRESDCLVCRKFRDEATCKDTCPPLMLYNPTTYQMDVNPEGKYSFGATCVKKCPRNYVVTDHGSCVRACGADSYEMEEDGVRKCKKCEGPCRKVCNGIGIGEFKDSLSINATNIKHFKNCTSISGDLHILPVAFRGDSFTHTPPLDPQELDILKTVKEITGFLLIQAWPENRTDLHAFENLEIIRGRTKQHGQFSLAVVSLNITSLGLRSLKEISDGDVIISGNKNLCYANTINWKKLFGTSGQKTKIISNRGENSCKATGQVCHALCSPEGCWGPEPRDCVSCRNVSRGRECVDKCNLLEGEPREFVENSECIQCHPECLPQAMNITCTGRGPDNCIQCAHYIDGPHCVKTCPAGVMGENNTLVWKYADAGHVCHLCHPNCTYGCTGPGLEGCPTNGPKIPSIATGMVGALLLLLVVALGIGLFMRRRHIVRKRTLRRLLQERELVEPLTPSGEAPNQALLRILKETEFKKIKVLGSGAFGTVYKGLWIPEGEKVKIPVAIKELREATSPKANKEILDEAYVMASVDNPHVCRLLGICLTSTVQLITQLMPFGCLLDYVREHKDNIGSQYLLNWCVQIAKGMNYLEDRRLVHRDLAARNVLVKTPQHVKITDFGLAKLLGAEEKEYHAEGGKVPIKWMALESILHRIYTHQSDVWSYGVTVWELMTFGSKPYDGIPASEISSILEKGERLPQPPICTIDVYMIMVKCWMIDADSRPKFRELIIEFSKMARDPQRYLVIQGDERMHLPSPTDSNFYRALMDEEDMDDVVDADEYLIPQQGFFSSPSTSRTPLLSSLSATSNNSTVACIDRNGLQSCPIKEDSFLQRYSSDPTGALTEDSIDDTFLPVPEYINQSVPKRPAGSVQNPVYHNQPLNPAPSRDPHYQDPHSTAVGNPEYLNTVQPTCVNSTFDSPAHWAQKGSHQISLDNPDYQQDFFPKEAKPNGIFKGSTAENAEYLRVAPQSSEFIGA

Row | Structure (SMILES) | IC50 (EGFR wildtype (WT); IC50 WT (nM), 100 μM ATP) [nM] | IC50 (EGFR wildtype (WT); [1]) [nM] | IC50 (EGFR L858R/C797S; [2]) [nM] | IC50 (EGFR L858R/C797S; [3]) [nM] | IC50 (EGFR Del19/C797S; [4]) [nM] | IC50 (EGFR Del19/C797S; [5]) [nM] | IC50 (EGFR L858R/T790M/C797S; [6]) [nM] | IC50 (EGFR L858R/T790M/C797S; [7]) [nM] | IC50 (EGFR Del19/T790M/C797S; [8]) [nM] | IC50 (EGFR Del19/T790M/C797S; [9]) [nM]
1 | CC(=O)C1CCN(c2cc(Nc3ccnc(-c4cnn(S(=O)(=O)C5CC5)c4)n3)ncc2C#Cc2cnn(C(F)(F)F)c2)CC1 [Example 334, 1-(1-(2-((2-(1-(Cyclopropylsulfonyl)-1H-pyrazol-4-yl)pyrimidin-4-yl)amino)-5-((1-(trifluoromethyl)-1H-pyrazol-4-yl)ethynyl)pyridin-4-yl)piperidin-4-yl)ethan-1-one] | > 10000 | 276 | 7530 | 136 | 1840 | 239 | 14.8 | 3.3 | 8 | 5.6
2 | CN(C)CCC1CCN(c2cc(Nc3ccnc(-c4cnn(S(=O)(=O)C5CC5)c4)n3)ncc2C#Cc2cnn(C(F)(F)F)c2)CC1 [Example 335, 2-(1-(Cyclopropylsulfonyl)-1H-pyrazol-4-yl)-N-(4-(4-(2-(dimethylamino)ethyl)piperidin-1-yl)-5-((1-(trifluoromethyl)-1H-pyrazol-4-yl)ethynyl)pyridin-2-yl)pyrimidin-4-amine] | 4970 | 9.2 | 53.4 | 4.3 | 2.3 | 2.1 | 0.4 | 0.2 | 0.4 | 0.4
3 | O=S(=O)(C1CC1)n1cc(-c2nccc(Nc3cc(N4CCC(F)(CO)CC4)c(C#Cc4cnn(C(F)(F)F)c4)cn3)n2)cn1 [Example 338, (1-(2-((2-(1-(Cyclopropylsulfonyl)-1H-pyrazol-4-yl)pyrimidin-4-yl)amino)-5-((1-(trifluoromethyl)-1H-pyrazol-4-yl)ethynyl)pyridin-4-yl)-4-fluoropiperidin-4-yl)methanol] | > 10000 | 149 | 9580 | 42.8 | 17.1 | 10.8 | 0.5 | 0.2 | 0.4 | 0.3
4 | O=S(=O)(C1CC1)n1cc(-c2nccc(Nc3cc(N4CCC(F)(CO)CC4)c(C#Cc4cnn(CC(F)(F)F)c4)cn3)n2)cn1 [Example 342, (1-(2-((2-(1-(Cyclopropylsulfonyl)-1H-pyrazol-4-yl)pyrimidin-4-yl)amino)-5-((1-(2,2,2-trifluoroethyl)-1H-pyrazol-4-yl)ethynyl)pyridin-4-yl)-4-fluoropiperidin-4-yl)methanol] | > 10000 | 11 | 11.8 | 4.5 | 3.6 | 2.3 | 0.8 | 0.2 | 0.9 | 0.8
5 | O=S(=O)(C1CC1)n1cc(-c2nccc(Nc3cc(N4CCCC(O)C4)c(C#Cc4cnn(CC(F)(F)F)c4)cn3)n2)cn1 (stereo not shown) [Example 343, 1-(2-((2-(1-(Cyclopropylsulfonyl)-1H-pyrazol-4-yl)pyrimidin-4-yl)amino)-5-((1-(2,2,2-trifluoroethyl)-1H-pyrazol-4-yl)ethynyl)pyridin-4-yl)piperidin-3-ol] | > 10000 | 55.5 | 68.1 | 19.8 | 19.2 | 11.9 | 3.1 | 0.7 | 1.9 | 2.6
6 | C[C@]1(O)CC[C@@H](Nc2cc(Nc3ccnc(-c4cnn(S(=O)(=O)C5CC5)c4)n3)ncc2C#Cc2cnn(CC(F)(F)F)c2)CC1 [Example 344, (1s, 4s)-4-((2-((2-(1-(Cyclopropylsulfonyl)-1H-pyrazol-4-yl)pyrimidin-4-yl)amino)-5-((1-(2,2,2-trifluoroethyl)-1H-pyrazol-4-yl)ethynyl)pyridin-4-yl)amino)-1-methylcyclohexan-1-ol] | > 10000 | 200 | 112 | 24.1 | 50.6 | 31.3 | 5 | 3.1 | 11.5 | 7.9
7 | CC1(O)CC2(CCN(c3cc(Nc4ccnc(-c5cnn(S(=O)(=O)C6CC6)c5)n4)ncc3C#Cc3cnn(CC(F)(F)F)c3)CC2)C1 [Example 347, 7-(2-((2-(1-(Cyclopropylsulfonyl)-1H-pyrazol-4-yl)pyrimidin-4-yl)amino)-5-((1-(2,2,2-trifluoroethyl)-1H-pyrazol-4-yl)ethynyl)pyridin-4-yl)-2-methyl-7-azaspiro[3.5]nonan-2-ol] | 7140 | 74.3 | 11.7 | 5.9 | 8.4 | 9.2 | 1.7 | 3.2 | 6 | 5.4

The remaining lines, values ahead:

Row | IC50 (EGFR wildtype (WT); IC50 WT (nM), 100 μM ATP) [nM] | IC50 (EGFR wildtype (WT); [1]) [nM] | IC50 (EGFR L858R/C797S; [2]) [nM] | IC50 (EGFR L858R/C797S; [3]) [nM] | IC50 (EGFR Del19/C797S; [4]) [nM] | IC50 (EGFR Del19/C797S; [5]) [nM] | IC50 (EGFR L858R/T790M/C797S; [6]) [nM] | IC50 (EGFR L858R/T790M/C797S; [7]) [nM] | IC50 (EGFR Del19/T790M/C797S; [8]) [nM] | IC50 (EGFR Del19/T790M/C797S; [9]) [nM] | Structure (SMILES)
8 | > 10000 | 295 | 1750 | 50.1 | 38.2 | 26.1 | 2.4 | 1.3 | 3.9 | 2 | O=S(=O)(C1CC1)n1cc(-c2nccc(Nc3cc(N[C@H]4CC[C@@H](CO)CC4)c(C#Cc4cnn(C(F)(F)F)c4)cn3)n2)cn1 [Example 336, ((1s,4s)-4-((2-((2-(1-(Cyclopropylsulfonyl)-1H-pyrazol-4-yl)pyrimidin-4-yl)amino)-5-((1-(trifluoromethyl)-1H-pyrazol-4-yl)ethynyl)pyridin-4-yl)amino)cyclohexyl)methanol]
9 | > 10000 |  | > 10000 |  | 325 | 197 | 10.9 | 3.3 | 8 | 6 | CC(C)(O)[C@H]1CC[C@@H](Nc2cc(Nc3ccnc(-c4cnn(S(=O)(=O)C5CC5)c4)n3)ncc2C#Cc2cnn(C(F)(F)F)c2)CC1 [Example 337, 2-((1s,4s)-4-((2-((2-(1-(Cyclopropylsulfonyl)-1H-pyrazol-4-yl)pyrimidin-4-yl)amino)-5-((1-(trifluoromethyl)-1H-pyrazol-4-yl)ethynyl)pyridin-4-yl)amino)cyclohexyl)propan-2-ol]
10 | > 10000 | 18.2 | 29.7 | 4.9 | 7.5 | 3.8 | 1 | 0.5 | 0.9 | 1 | O=S(=O)(C1CC1)n1cc(-c2nccc(Nc3cc(N[C@H]4CC[C@@H](O)CC4)c(C#Cc4cnn(CC(F)(F)F)c4)cn3)n2)cn1 [Example 339, (1s,4s)-4-((2-((2-(1-(Cyclopropylsulfonyl)-1H-pyrazol-4-yl)pyrimidin-4-yl)amino)-5-((1-(2,2,2-trifluoroethyl)-1H-pyrazol-4-yl)ethynyl)pyridin-4-yl)amino)cyclohexan-1-ol]
11 | > 10000 | 26 | 40.8 | 10.5 | 7.3 | 5 | 1.6 | 0.7 | 2 | 1.6 | O=S(=O)(C1CC1)n1cc(-c2nccc(Nc3cc(N[C@H]4CC[C@@H](CO)CC4)c(C#Cc4cnn(CC(F)(F)F)c4)cn3)n2)cn1 [Example 340, ((1s,4s)-4-((2-((2-(1-(Cyclopropylsulfonyl)-1H-pyrazol-4-yl)pyrimidin-4-yl)amino)-5-((1-(2,2,2-trifluoroethyl)-1H-pyrazol-4-yl)ethynyl)pyridin-4-yl)amino)cyclohexyl)methanol]
12 | > 10000 | 163 | 128 | 42.4 | 34.2 | 21.4 | 4 | 0.9 | 3.1 | 2.5 | O=S(=O)(C1CC1)n1cc(-c2nccc(Nc3cc(N[C@H]4CCC[C@H](O)C4)c(C#Cc4cnn(CC(F)(F)F)c4)cn3)n2)cn1 [Example 341, (1S,3S)-3-((2-((2-(1-(Cyclopropylsulfonyl)-1H-pyrazol-4-yl)pyrimidin-4-yl)amino)-5-((1-(2,2,2-trifluoroethyl)-1H-pyrazol-4-yl)ethynyl)pyridin-4-yl)amino)cyclohexan-1-ol]
13 | 7830 | 138 | 45.3 | 9.3 | 27.6 | 11 | 2.2 | 1.3 | 2.7 | 1.5 | O=S(=O)(C1CC1)n1cc(-c2nccc(Nc3cc(N[C@H]4CC[C@@H](NCCF)CC4)c(C#Cc4cnn(CC(F)(F)F)c4)cn3)n2)cn1 [Example 345, N^2-(2-(1-(Cyclopropylsulfonyl)-1H-pyrazol-4-yl)pyrimidin-4-yl)-N^4-((1s,4s)-4-((2-fluoroethyl)amino)cyclohexyl)-5-((1-(2,2,2-trifluoroethyl)-1H-pyrazol-4-yl)ethynyl)pyridine-2,4-diamine]
14 | > 10000 |  | 249 |  | 45.3 |  | 5.8 |  | 17.4 |  | CC(C)(O)[C@H]1CC[C@@H](Nc2cc(Nc3ccnc(-c4cnn(S(=O)(=O)C5CC5)c4)n3)ncc2C#Cc2cnn(CC(F)(F)F)c2)CC1 [Example 346, 2-((1s,4s)-4-((2-((2-(1-(Cyclopropylsulfonyl)-1H-pyrazol-4-yl)pyrimidin-4-yl)amino)-5-((1-(2,2,2-trifluoroethyl)-1H-pyrazol-4-yl)ethynyl)pyridin-4-yl)amino)cyclohexyl)propan-2-ol]
